Calls of active or inactive are those of the source. The calls are words filed in the database; no cut-off is given here.
How the values were obtained:
[1] = Selectivity index, ratio of IC50 for african green monkey Vero cells to IC50 for Leishmania donovani; type: toxicity, cell-based; conditions: read-out: Ratio IC50
[2] = Selectivity index, ratio of IC50 for african green monkey Vero cells to IC50 for static antileishmanial activity against Leishmania major NIH-S (MHOM/SN/74/Seidman) amastigote; type: toxicity, cell-based; conditions: read-out: Ratio IC50
[3] = Selectivity index, ratio of IC50 for human THP-1 cells to IC50 for static antileishmanial activity against Leishmania major NIH-S (MHOM/SN/74/Seidman) amastigote; type: toxicity, cell-based; conditions: read-out: Ratio IC50
[4] = Selectivity index, ratio of IC50 for human THP-1 cells to IC50 for Trypanosoma cruzi Tulahuen C4 strain; type: toxicity, cell-based; conditions: read-out: Ratio IC50
[5] = Selectivity index, ratio of CC50 for MDBK to IC50 for Trypanosoma equiperdum IVM-t1; type: toxicity, cell-based; conditions: cattle, MDBK cells; read-out: Ratio CC50/IC50
[6] = Selectivity index, ratio of IC50 for african green monkey Vero cells to IC50 for Leishmania donovani 9515 (MHOM/IN/95/9151) promastigote; type: toxicity, cell-based; conditions: read-out: Ratio IC50
[7] = Selectivity index, ratio of IC50 for human THP-1 cells to IC50 for static antileishmanial activity against Leishmania donovani 9515 (MHOM/IN/95/9151) amastigote; type: toxicity, cell-based; conditions: read-out: Ratio IC50
Leishmania major [8] = experiment: Antileishmanial activity against Leishmania major IR-173 (MHO-M/IR/-173) promastigote incubated for 48 hrs by resazurin dye based plate reader assay; type: functional, organism-based
[9] = Cytotoxicity against human […]-differentiated THP-1 cells incubated for 72 hrs by resazurin dye based assay; type: toxicity, cell-based
Leishmania major [10] = experiment: Leishmanicidal activity against Leishmania major NIH-S (MHOM/SN/74/Seidman) amastigote incubated for 48 hrs by resazurin dye based plate reader assay; type: functional, organism-based
Trypanosoma cruzi [11] = experiment: Antitrypanosomal activity against Trypanosoma cruzi Tulahuen C4 strain amastigotes infected in Vero cells incubated for 72 hrs by beta-galactosidase based assay; type: functional, organism-based
[12] = Cytotoxicity against MDBK cells incubated for 72 hrs by CCK8 assay; type: toxicity, cell-based, Bos taurus; conditions: cattle, MDBK cells
Trypanosoma congolense [13] = experiment: Antitrypanosomal activity against Trypanosoma congolense IL3000 infected in BALB/c mouse assessed as animal survival at 100 mg/kg, po or 10 mg/kg, ip administered for 7 consecutive days starting from 6 days post infection and measured after 13 days post infection; type: functional, organism-based; conditions: time 7.0 day
Trypanosoma evansi = experiment: Trypanocidal activity against Trypanosoma evansi Tansui incubated for 72 hrs by CellTiter-Glo reagent based […] analysis; type: functional, organism-based
Leishmania donovani [14] = experiment: Antileishmanial activity against Leishmania donovani 9515 (MHOM/IN/95/9151) amastigote infected in THP-1 cells assessed as inhibition of parasite growth incubated for 72 hrs by resazurin dye based plate reader assay; type: functional, organism-based; conditions: THP-1, 72 h
[15] = Selectivity index, ratio of IC50 for african green monkey Vero cells to IC50 for static antileishmanial activity against Leishmania donovani 9515 (MHOM/IN/95/9151) amastigote; type: toxicity, cell-based; conditions: read-out: Ratio IC50
Leishmania major [16] = experiment: Antileishmanial activity against Leishmania major NIH-S (MHOM/SN/74/Seidman) amastigote infected in THP-1 cells assessed as inhibition of parasite growth incubated for 72 hrs by resazurin dye based plate reader assay; type: functional, organism-based; conditions: THP-1, 72 h
Trypanosoma equiperdum = experiment: Trypanocidal activity against Trypanosoma equiperdum IVM-t1 incubated for 72 hrs by CellTiter-Glo reagent based […] analysis; type: functional, organism-based; conditions: IVM-t1, 72 h
[17] = test system: Trypanosoma brucei rhodesiense; experiment: Trypanocidal activity against Trypanosoma brucei rhodesiense IL1501 incubated for 72 hrs by CellTiter-Glo reagent based […] analysis; type: functional, organism-based; conditions: IL1501, 72 h
Leishmania donovani [18] = experiment: Antileishmanial activity against Leishmania donovani 9515 (MHOM/IN/95/9151) promastigote incubated for 48 hrs by resazurin dye based plate reader assay; type: functional, organism-based
[19] = test system: Trypanosoma brucei gambiense; experiment: Trypanocidal activity against Trypanosoma brucei gambiense IL1922 incubated for 72 hrs by CellTiter-Glo reagent based […] analysis; type: functional, organism-based; conditions: IL1922, 72 h
[20] = Selectivity index, ratio of IC50 for human THP-1 cells to IC50 for Leishmania major IR-173 (MHO-M/IR/-173) promastigote; type: toxicity, cell-based; conditions: read-out: Ratio IC50
[21] = Selectivity index, ratio of IC50 for human THP-1 cells to IC50 for leishmanicidal activity against Leishmania major NIH-S (MHOM/SN/74/Seidman); type: toxicity, cell-based; conditions: read-out: Ratio IC50
[22] = Selectivity index, ratio of IC50 for african green monkey Vero cells to IC50 for leishmanicidal activity against Leishmania donovani 9515 (MHOM/IN/95/9151) amastigote; type: toxicity, cell-based; conditions: read-out: Ratio IC50
[23] = test system: Trypanosoma brucei brucei; experiment: Trypanocidal activity against Trypanosoma brucei brucei GUTat3.1 incubated for 72 hrs by CellTiter-Glo reagent based […] analysis; type: functional, organism-based; conditions: GUTat3.1, 72 h
[24] = Selectivity index, ratio of CC50 for MDBK to IC50 for Trypanosoma congolense IL3000; type: toxicity, cell-based; conditions: cattle, MDBK cells; read-out: Ratio CC50/IC50
[25] = Selectivity index, ratio of IC50 for human THP-1 cells to IC50 for leishmanicidal activity against Leishmania donovani 9515 (MHOM/IN/95/9151) amastigote; type: toxicity, cell-based; conditions: read-out: Ratio IC50
Trypanosoma congolense [26] = experiment: Trypanocidal activity against Trypanosoma congolense IL3000 incubated for 72 hrs by CellTiter-Glo reagent based […] analysis; type: functional, organism-based; conditions: IL3000, 72 h
[27] = Selectivity index, ratio of CC50 for MDBK to IC50 for Trypanosoma brucei gambiense IL1922; type: toxicity, cell-based; conditions: cattle, MDBK cells; read-out: Ratio CC50/IC50
[28] = Selectivity index, ratio of CC50 for MDBK to IC50 for Trypanosoma brucei rhodesiense IL1501; type: toxicity, cell-based; conditions: cattle, MDBK cells; read-out: Ratio CC50/IC50
[29] = Selectivity index, ratio of IC50 for african green monkey Vero cells to IC50 for leishmanicidal activity against Leishmania major NIH-S (MHOM/SN/74/Seidman) amastigote; type: toxicity, cell-based; conditions: read-out: Ratio IC50
[30] = Selectivity index, ratio of IC50 for african green monkey Vero cells to IC50 for Trypanosoma cruzi Tulahuen C4 strain; type: toxicity, cell-based; conditions: read-out: Ratio IC50
Leishmania donovani [31] = experiment: Leishmanicidal activity against Leishmania donovani 9515 (MHOM/IN/95/9151) amastigote infected in THP-1 cells incubated for 72 hrs by resazurin dye based plate reader assay; type: functional, organism-based; conditions: THP-1, 72 h
Trypanosoma congolense [32] = experiment: Antitrypanosomal activity against Trypanosoma congolense IL3000 infected in BALB/c mouse assessed as increase in animal survival time at 100 mg/kg, po or 10 mg/kg, ip administered for 7 consecutive days starting from 6 days post infection (reference value: 9 day); type: functional; conditions: time 7 day
[33] = Selectivity index, ratio of IC50 for african green monkey Vero cells to IC50 for Leishmania major IR-173 (MHO-M/IR/-173) promastigote; type: toxicity, cell-based; conditions: read-out: Ratio IC50
[34] = Selectivity index, ratio of CC50 for MDBK to IC50 for Trypanosoma evansi Tansui; type: toxicity, cell-based; conditions: cattle, MDBK cells; read-out: Ratio CC50/IC50
[35] = Selectivity index, ratio of CC50 for MDBK to IC50 for Trypanosoma brucei brucei GUTat3.1; type: toxicity, cell-based; conditions: cattle, MDBK cells; read-out: Ratio CC50/IC50
[36] = Selectivity index, ratio of IC50 for human THP-1 cells to IC50 for Leishmania donovani 9515 (MHOM/IN/95/9151) promastigote; type: toxicity, cell-based; conditions: read-out: Ratio IC50
[37] = Cytotoxicity against green monkey Vero cells incubated for 48 hrs by resazurin dye based assay; type: toxicity, cell-based; conditions: African green monkey (Chlorocebus sabaeus)
Trypanosoma cruzi [38] = experiment: Antitrypanosomal activity against Trypanosoma cruzi Tulahuen C4 strain trypomastigotes assessed as growth inhibition at 20 uM incubated for 48 hrs by resazurin dye based assay; type: functional; parameters: scale not given: the % may be the effect or the level left

| SMILES | selectivity ratio [1] | selectivity ratio [2] | selectivity ratio [3] | selectivity ratio [4] | selectivity ratio [5] | selectivity ratio [6] | selectivity ratio [7] | IC50 (Leishmania major [8]) [nM] | IC50 at 72 h [9] [nM] | IC50 (Leishmania major [10]) [nM] | IC50 (Trypanosoma cruzi [11]) [nM] | CC50 at 72 h [12] [nM] | Activity (Trypanosoma congolense [13]) | IC50 (Trypanosoma evansi) [nM] | IC50 (Leishmania donovani [14]) [nM] | selectivity ratio [15] | IC50 (Leishmania major [16]) [nM] | IC50 (Trypanosoma equiperdum) [nM] | IC50 [17] [nM] | IC50 (Leishmania donovani [18]) [nM] | further results |
| --- | --- | --- | --- | --- | --- | --- | --- | --- | --- | --- | --- | --- | --- | --- | --- | --- | --- | --- | --- | --- | --- |
| O=[N+]([O-])c1ccc(/C=N/N=C/c2ccc(OCc3ccccc3)cc2)o1 | 400 | – | – | – | – | – | – | – | – | – | – | – | – | – | – | – | – | – | – | – | – |
| C#CCn1cc(/C=N\N=C\c2ccc([N+](=O)[O-])o2)c2cc([N+](=O)[O-])ccc21 | – | 7 | 60 | 55 | > 146 | 40 | 20 | 80 | 66300 | 1410 | 1210 | > 274000 | inactive | 1960 | 3270 | 2 | 1090 | 1880 | 750 | 200 | IC50 [19]: 680 nM; selectivity ratio [20]: 829; selectivity ratio [21]: 47; selectivity ratio [22]: 2; IC50 [23]: 1240 nM; selectivity ratio [24]: > 3280; selectivity ratio [25]: 20; IC50 (Trypanosoma congolense [26]): 80 nM; selectivity ratio [27]: > 405; selectivity ratio [28]: > 364; selectivity ratio [29]: 6; selectivity ratio [30]: 6; IC50 (Leishmania donovani [31]): 3290 nM; Survival (Trypanosoma congolense [32]): 9.5 days; selectivity ratio [33]: 106; selectivity ratio [34]: > 140; selectivity ratio [35]: > 222; selectivity ratio [36]: 332; IC50 at 48 h [37]: 8070 nM; Activity (Trypanosoma cruzi [38]): 22% |
| O=Cc1ccc([N+](=O)[O-])o1 | 2 | – | – | – | – | – | – | – | – | – | – | – | – | – | – | – | – | – | – | – | – |
| C#CCn1cc(/C=N\N=C\c2ccc([N+](=O)[O-])s2)c2cc([N+](=O)[O-])ccc21 | – | 142 | 278 | 121 | > 780 | 26 | 42 | > 10000 | > 100000 | 1740 | 820 | > 263000 | inactive | 300 | 2340 | 22 | 360 | 340 | 350 | 1950 | IC50 [19]: 250 nM; selectivity ratio [21]: 58; selectivity ratio [22]: 15; IC50 [23]: 330 nM; selectivity ratio [24]: > 2950; selectivity ratio [25]: > 28; IC50 (Trypanosoma congolense [26]): 90 nM; selectivity ratio [27]: > 1070; selectivity ratio [28]: > 753; selectivity ratio [29]: 25; selectivity ratio [30]: 62; IC50 (Leishmania donovani [31]): 3510 nM; Survival (Trypanosoma congolense [32]): 10.5 days; selectivity ratio [34]: > 864; selectivity ratio [35]: > 790; selectivity ratio [36]: 51; IC50 at 48 h [37]: 51100 nM; Activity (Trypanosoma cruzi [38]): 59% |
